Reference: patent publication US7635693B2, “Methods for preventing and treating cancer using N-thiolated β-lactam compounds and analogs thereof” (University of South Florida, priority 2002, dated 2009)
Read-outs that look alike come from different tables or passages of the source.

Key:
[1] = tested on: caspase-9; conditions: Jurkat T cells
Protocol: (§1) J. Biol Chem 276:13322-30 with some modifications. Briefly, a prepared protein extract (20 μg) is incubated in a buffer containing 50 mM Tris/pH 8.0 along with each respective caspase substrate at 20 μM in a 96 well plate. The reaction mixture is incubated at 37° C. for 2 h. After incubation, the liberated fluorescent AMC or AFC groups are measured by a Wallac Victor 1420 Multilabel counter (Turku, Finland) with 355/460 […] and 405/535 nm filters, respectively.

[2] = tested on: caspase-8; conditions: Jurkat T cells; for increase of caspase-8 levels over untreated cells: 8 hours
Protocol: as §1

[3] = tested on: WI-38 cells; conditions: 50 μM
Protocol: (§2) (FIG. 19A) MTT assay. (FIG. 19B) Cell-free caspase-9 activity assay. A protein extract (20 μg) is incubated with 20 μM Ac-LEHD-AFC (the specific caspase-9 substrate) in a 96-well plate at 37° C. for 2 h. After incubation, the liberated florescent AFC groups are measured by Wallac Victor 1420 Multilabel counter with 405/535 nm filters. […] Both intact and active forms of caspase-3 are indicated. […] Both detached and attached populations of Va-13 or WI-38 cells are collected, and used for nuclear staining assay with DNA staining dye Hoechst 33342.
(§3) An MTT assay was performed in a 96-well plate, which measures cellular mitochondrial function and thereby cytotoxicity.

[4] = tested on: VA-13 cells; conditions: 50 μM
Protocol: as §2, §3

[5] = tested on: LNCaP cells; conditions: LNCaP cells in soft agar, 50 μM, 21 day-incubation
Protocol: The soft agar assay was performed as described previously (Menter D G, Sabichi A L, Lippman S M., 2000, Selenium effects on prostate cell growth. Cancer Epidemiol Biomarkers Prev 9:1171-82) with a few modifications. In brief, in a six-well plate, a bottom feeder layer (0.6% agar) was prepared with DMEM media containing 10% fetal bovine serum, 100 units/ml penicillin, and 100 μg/ml streptomycin. […] Plates were incubated at 37° C. in 5% CO2 in a humidified incubator for three weeks. MTT (1 mg/ml) was added to each well and incubated overnight to allow complete formation of purple formazan crystals. The plates were then scanned and photographed, and the number of colonies was quantified by Quantity one v.4.0.3 software (Bio-Rad, Hercules, Calif.).

[6] = tested on: Jurkat T cells; experiment: Flow cytometry cell cycle distribution and sub-G1 population, Jurkat T cells; format: cell-based, human; conditions: 50 μM
Protocol: Cell Death Differ 5:1062-75. At each time point, cells are harvested, counted, and washed twice with PBS. Cells (5×10^6) are suspended in 0.5 ml PBS, fixed in 5 ml of 70% ethanol for at least 2 h at −20° C., centrifuged, resuspended again in 1 ml of propidium iodide staining solution (50 μg propidium iodide, 100 units RNase A and 1 mg glucose per ml PBS), and incubated at room temperature for 30 minutes. The cells are then analyzed with FACScan (Becton Dickinson Immunocytometry, CA), ModFit LT and WinMDI V.2.8 cell cycle analysis software (Verity Software; Topsham, Me.). The cell cycle distribution is shown as the percentage of cells containing G1, S, G2, and M DNA judged by propidium iodide staining. The apoptotic population is determined as the percentage of cells with sub-G1 (<G1) DNA content.

[7] = tested on: Jurkat T cells; conditions: for inhibition of 3H-thymidine incorporation: Jurkat T cells
Protocol: Incorporation of ^3H-thymidine into cells was measured as disclosed in Smith D M and Dou Q P, 2001, Green tea polyphenol epigallocatechin inhibits DNA replication and consequently induces leukemia cell apoptosis. Int J Mol Med 7:645-52. Jurkat T cells are pre-treated with a selected lactam for the indicated number of hours, followed by co-incubation with 2 μl/ml of [methyl-^3H]-thymidine [80 Ci (1.5 TBq)/mMol] at 37° C. for 2 hours. After harvesting, the cell pellet is washed with PBS, resuspended in 0.5 ml of PBS and collected on a glass microfiber filter. The filter is then washed with 5 ml/filter of PBS, followed by 5 ml/filter of ice-cold 0.1N NaOH and 5 ml/filter of ethanol. The filters containing fixed DNA are dried, and the remaining radioactivity is measured on a scintillation counter.

[8] = tested on: caspase-3; conditions: 50 μM, up to 48 hours
Protocol: as §2

[9] = tested on: caspase-9; conditions: 50 μM, up to 48 hours
Protocol: as §2

[10] = tested on: NK cells (YT line); conditions: YT cells, 30 μM, 24 h
Protocol: The trypan blue dye exclusion assay was performed by mixing 20 μl of cell suspension with 20 μl of 0.4% trypan blue dye before injecting into a hemocytometer and counting. The number of cells that absorbed the dye and those that exclude the dye were counted, from which the percentage of nonviable cell number to total cell number was calculated.

[11] = tested on: caspase-3; experiment: Cell-free caspase-3 activity assay on extracts of treated Jurkat T cells; format: cell-based, human
Protocol: Briefly, a prepared protein extract (20 μg) is incubated in a buffer containing 50 mM Tris/pH 8.0 along with each respective caspase substrate at 20 μM in a 96 well plate. The reaction mixture is incubated at 37° C. for 2 h.
A library of β-lactam analogs was screened for their ability to induce apoptosis. The screening procedure is accomplished by treating human Jurkat T cells with each compound at 50 μM for 8 hours. This is followed by preparation of cell lysates and measurement of apoptosis-specific caspase-3 activation (by cell-free caspase-3 activity assay) and PARP cleavage (by Western blotting).

Question: What does the source list for COC1C(=O)N(SC)C1c1ccccc1Cl (racemic) [lactam 1]?
Answer: time at which caspase-9 activity is first detected ([1]; 50 μM): 4 h; caspase-9 activity ([1]; 8 hours, higher concentrations of lactam 1): Higher levels; time at which caspase-8 activity was detected ([2]; 50 μM): 2 h; time of maximal caspase-8 activity ([2]; 50 μM): 6 h; increase of caspase-8 levels over untreated cells ([2]; 50 μM): 5 fold; increase of caspase-8 levels over untreated cells ([2]; 30 to 40 μM): 2 fold; cell growth (MTT) ([3]; 24 hours): slightly inhibited the cell growth; cell population ([3]; 120 hours): doubled; cell growth (MTT) ([4]; 6 or 24 hours): completely inhibited growth; viable cells ([4]; 120 hours): no viable VA-13 cells; inhibition of colony formation [5]: 91%; apoptotic sub-G1 cell population ([6]; 2 to 4 hours): 2%; increase in S phase population ([6]; 2 to 4 hours): 2-3%; increase in S phase population ([6]; 6 to 12 hours): up to 13%; sub-G1 population ([6]; 6 to 12 hours): 5-16%; increase in S phase population ([6]; 5 hours): 21%; sub-G1 apoptotic population ([6]; 5 hours): 14%; sub-G1 population ([6]; 24 h): 30%; increase in S population ([6]; 24 hour): 20%; inhibition of 3H-thymidine incorporation ([7]; 20 μM, 2 h pre-incubation + 2 hour co-incubation): 20%; inhibition of 3H-thymidine incorporation ([7]; 30 μM, 2 h pre-incubation + 2 hour co-incubation): 45%; inhibition of 3H-thymidine incorporation ([7]; 40 μM, 2 h pre-incubation + 2 hour co-incubation): 90%; inhibition of 3H-thymidine incorporation ([7]; 50 μM, added at the same time as 3H-thymidine, co-incubated 2 h): ~70%; inhibition of 3H-thymidine incorporation ([7]; 50 μM, pre-incubation 2 to 8 h, then 2 hour with 3H-thymidine): 95%; inhibition of 3H-thymidine incorporation ([7]; 50 or 60 μM, 2 h pre-incubation + 2 hour co-incubation): ~100%; IC50 ([7]; read-out: half-maximal inhibition value for incorporation of 3H-thymidine (IC50), intact Jurkat cells, total treatment 4 h): 32 µM; processing and activation of caspase-3 ([8]; VA-13 cells): detected only in the transformed, but not normal, human cells; processing and activation of caspase-3 ([8]; WI-38 cells): detected only in the transformed, but not normal, human cells; cell-free caspase-9 activity ([9]; VA-13 cells): activated cell-free caspase-9 activity; cell-free caspase-9 activity ([9]; WI-38 cells): no caspase-9 activation was detected; cell death (trypan blue) [10]: 9%; time at which cell-free caspase-3 activity was first observed ([11]; 50 μM): 4 h; caspase-3 activation ([11]; 50 μM, 8 hours): greatest potency; increase of caspase-3 levels over untreated cells ([11]; 8 hours, 20 μM): 2 fold; increase of caspase-3 levels over untreated cells ([11]; 8 hours, 30 μM): 3 fold; increase of caspase-3 levels over untreated cells ([11]; 8 hours, 40 μM): 5 fold; increase of caspase-3 levels over untreated cells ([11]; 8 hours, 50 μM): 11 fold
